Laboratory results: patent US20220332700A1, “NOVEL APOPTOSIS SIGNAL-REGULATING KINASE 1 INHIBITORS” (MANKIND PHARMA LTD, priority 2019, published 2022)

How the values were obtained:
recombinant ASK1 = target: T1, recombinant ASK1 (Homo sapiens, UniProt Q99683); experiment: ASK1 Biochemical Assay (HTRF KinEASE-STK S3); settings: ATP 100 μM; read-out: Biochemical Assay IC50
T1 construct: purchased Carna Biosciences
Procedure, shortened: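 Recombinant ASK1 (5 ng) preincubated with compound 1 h at 23 °C in MOPS pH 7 buffer with Mg-acetate, DTT, NP40, glycerol, BSA and 1% DMSO. Inhibition calculated against vehicle after substrate-blank subtraction.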

Human ASK1 = target: T2, Human ASK1 (Homo sapiens, UniProt Q99683); experiment: ASK1 Cell Based Assay (phospho p38 read out in hASK1 transfected HEK293T-AP1 cells); settings: HEK293T-AP1 cells, 1 mM hydrogen peroxide, phospho p38; read-out: Cell Based Assay IC50
T2 construct: expressed in transfected cells; host or cells: HEK293T-AP1
T2 sequence (Q99683 1-1374): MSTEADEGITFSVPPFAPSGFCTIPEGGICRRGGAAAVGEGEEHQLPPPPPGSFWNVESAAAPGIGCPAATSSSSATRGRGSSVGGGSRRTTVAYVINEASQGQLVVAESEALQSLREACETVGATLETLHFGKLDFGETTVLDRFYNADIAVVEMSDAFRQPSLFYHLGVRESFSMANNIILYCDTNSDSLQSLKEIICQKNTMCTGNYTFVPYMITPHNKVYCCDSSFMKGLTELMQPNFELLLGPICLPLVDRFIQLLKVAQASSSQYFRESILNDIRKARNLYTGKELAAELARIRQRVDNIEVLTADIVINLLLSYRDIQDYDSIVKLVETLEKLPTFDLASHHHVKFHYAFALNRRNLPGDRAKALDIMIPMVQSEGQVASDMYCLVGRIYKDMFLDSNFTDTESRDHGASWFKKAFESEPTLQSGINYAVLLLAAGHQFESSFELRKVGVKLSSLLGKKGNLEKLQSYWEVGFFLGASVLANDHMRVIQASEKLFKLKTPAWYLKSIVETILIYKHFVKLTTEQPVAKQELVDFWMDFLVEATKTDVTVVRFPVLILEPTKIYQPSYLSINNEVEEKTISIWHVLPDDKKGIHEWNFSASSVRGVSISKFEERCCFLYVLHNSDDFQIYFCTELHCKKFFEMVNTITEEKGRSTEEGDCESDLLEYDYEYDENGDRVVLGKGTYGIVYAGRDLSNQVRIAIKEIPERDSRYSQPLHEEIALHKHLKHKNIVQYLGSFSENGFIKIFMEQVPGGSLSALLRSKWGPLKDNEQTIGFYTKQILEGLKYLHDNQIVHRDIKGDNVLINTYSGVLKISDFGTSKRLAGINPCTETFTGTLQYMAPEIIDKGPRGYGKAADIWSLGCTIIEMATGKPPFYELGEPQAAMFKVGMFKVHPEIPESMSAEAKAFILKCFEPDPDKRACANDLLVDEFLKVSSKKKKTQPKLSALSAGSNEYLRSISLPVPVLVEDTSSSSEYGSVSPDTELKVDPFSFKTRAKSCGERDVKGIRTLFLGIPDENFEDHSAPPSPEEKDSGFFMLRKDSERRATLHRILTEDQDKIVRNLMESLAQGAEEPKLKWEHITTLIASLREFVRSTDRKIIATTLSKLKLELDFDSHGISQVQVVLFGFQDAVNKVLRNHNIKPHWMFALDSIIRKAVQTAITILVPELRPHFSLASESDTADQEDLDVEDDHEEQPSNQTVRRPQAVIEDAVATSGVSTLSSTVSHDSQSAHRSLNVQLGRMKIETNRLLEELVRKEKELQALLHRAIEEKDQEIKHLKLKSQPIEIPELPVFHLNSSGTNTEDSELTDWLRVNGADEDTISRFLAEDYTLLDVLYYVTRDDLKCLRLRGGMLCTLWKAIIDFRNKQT
Protocol: HEK293T-AP1 cells were seeded at a density of 20,000 cells per well in a poly-d-lysine coated 96 well microplate. Next day, cells were transfected with hASK1-pcDNA3.1 vector using lipofectamine 3000. After 24 hours of transfection, cells were treated with compounds for 24 hours in assay medium. DMSO was used as a vehicle control with a final DMSO concentration of 0.2%. On 4th day, medium was discarded and cells were activated with 1 mM hydrogen peroxide for 1 hour in the presence of compounds. Cells were lysed for 1 hour with 1× lysis buffer on a shaker at 100 rpm. Sixteen microliters of lysate was collected into a 384 well small volume plate. Phospho p38 levels in the lysate was detected by using CisbioPhospho-p38 MAPK (Thr180/Tyr182) #64P38PEG.Four microliters of phospho p38 antibodies labelled with europium cryptate and d2 acceptor, were added to the lysate and incubated overnight. TR-FRET was measured at an excitation of 335 nm and emission was measured at 615 nm and 665 nm in BMG FLUOstar multimode reader.
Compounds were assessed for ASK1 inhibition based on phospho p38 read out. […] Background control values were susbtracted from vehicle control as well as from compound treated wells.

IC50 (recombinant ASK1) [nM]	IC50 (Human ASK1) [nM]	SMILES
< 100	> 1000	COc1ccc(N2CCN(c3cccc(-c4nncn4C(C)C)n3)C2=O)cc1 [Example 1039, 1-(6-(4-isopropyl-4H-1,2,4-triazol-3-yl)pyridin-2-yl)-3-(4-methoxyphenyl)imidazolidin-2-one]
< 100	> 10000	CC(C)n1cnnc1-c1cccc(N2CCN(c3ccc(-n4cnc(C5CC5)c4)cc3)C2=O)n1 [Example 1040, 1-(4-(4-cyclopropyl-1H-imidazol-1-yl)phenyl)-3-(6-(4-isopropyl-4H-1,2,4-triazol-3-yl)pyridin-2-yl)imidazolidin-2-one]
< 100	> 1000	CC(C)n1cnnc1-c1cccc(N2CCN(c3ccc(N(C)C)cc3)C2=O)n1 [Example 1041, 1-(4-(dimethylamino)phenyl)-3-(6-(4-isopropyl-4H-1,2,4-triazol-3-yl)pyridin-2-yl)imidazolidin-2-one]
< 100	> 1000	CC(C)n1cnnc1-c1cccc(N2CCN(c3ccc(NS(C)(=O)=O)cc3)C2=O)n1 [Example 1044, N-(4-(3-(6-(4-isopropyl-4H-1,2,4-triazol-3-yl)pyridin-2-yl)-2-oxoimidazolidin-1-yl)phenyl)methanesulfonamide]
< 100	< 1000	CNS(=O)(=O)c1ccc(N2CCN(c3cccc(-c4nncn4C(C)C)n3)C2=O)cc1 [Example 1045, 4-(3-(6-(4-isopropyl-4H-1,2,4-triazol-3-yl)pyridin-2-yl)-2-oxoimidazolidin-1-yl)-N-methylbenzenesulfonamide]
< 100	> 1000	CC(C)n1cnnc1-c1cccc(N2CCN(c3ccc(CS(C)(=O)=O)cc3)C2=O)n1 [Example 1047, 1-(6-(4-isopropyl-4H-1,2,4-triazol-3-yl)pyridin-2-yl)-3-(4-((methylsulfonyl)methyl)phenyl)imidazolidin-2-one]
< 100	> 1000	CC(C)n1cnnc1-c1cccc(N2CCN(c3ccc(C(=O)NC4CC4)cc3)C2=O)n1 [Example 1048, N-cyclopropyl-4-(3-(6-(4-isopropyl-4H-1,2,4-triazol-3-yl)pyridin-2-yl)-2-oxoimidazolidin-1-yl)benzamide]
< 100	> 1000	COCCS(=O)(=O)c1ccc(N2CCN(c3cccc(-c4nncn4C(C)C)n3)C2=O)cc1 [Example 1050, 1-(4-(2-methoxyethylsulfonyl)phenyl)-3-(6-(4-isopropyl-4H-1,2,4-triazol-3-yl)pyridin-2-yl)imidazolidin-2-one]
< 100	< 1000	CC(C)n1cnnc1-c1cccc(N2CCN(c3ccc(C(O)C4CC4)cc3)C2=O)n1 (stereo not drawn) [Example 1051, 1-(4-(cyclopropyl(hydroxy)methyl)phenyl)-3-(6-(4-isopropyl-4H-1,2,4-triazol-3-yl)pyridin-2-yl)imidazolidin-2-one]
< 100	> 1000	CC(C)n1cnnc1-c1cccc(N2CCN(c3ccc(NC(C(N)=O)C4CC4)cc3)C2=O)n1 (stereo not drawn) [Example 1052, 2-(4-(3-(6-(4-isopropyl-4H-1,2,4-triazol-3-yl)pyridin-2-yl)-2-oxoimidazolidin-1-yl)phenylamino)-2-cyclopropylacetamide]
< 100	> 1000	CC(CC#N)n1cnnc1-c1cccc(N2CCN(c3ccc(S(C)(=O)=O)cc3)C2=O)n1 (stereo not drawn) [Example 1053, 3-(3-(6-(3-(4-(methylsulfonyl)phenyl)-2-oxoimidazolidin-1-yl)pyridin-2-yl)-4H-1,2,4-triazol-4-yl)butanenitrile]
< 100	> 1000	COc1cc(S(C)(=O)=O)c(C)cc1N1CCN(c2cccc(-c3nncn3C(C)C)n2)C1=O [Example 1055, 1-(6-(4-isopropyl-4H-1,2,4-triazol-3-yl)pyridin-2-yl)-3-(2-methoxy-5-methyl-4-(methylsulfonyl)phenyl)imidazolidin-2-one]
> 100	> 1000	CC(C)n1cnnc1-c1cccc(N2CCN(c3ccc(NC(C#N)C4CC4)cc3)C2=O)n1 (stereo not drawn) [Example 1056, 2-(4-(3-(6-(4-isopropyl-4H-1,2,4-triazol-3-yl)pyridin-2-yl)-2-oxoimidazolidin-1-yl)phenylamino)-2-cyclopropylacetonitrile]
< 100	> 1000	CC(CO)n1cnnc1-c1cccc(N2CCN(c3ccc(S(C)(=O)=O)cc3)C2=O)n1 (stereo not drawn) [Example 1057, 1-(6-(4-(1-hydroxypropan-2-yl)-4H-1,2,4-triazol-3-yl)pyridin-2-yl)-3-(4-(methylsulfonyl)phenyl)imidazolidin-2-one]
< 100	> 1000	CC(C)n1cnnc1-c1cccc(N2CCN(c3ccc(S(C)(=O)=O)c(C4CC4)c3)C2=O)n1 [Example 1059, 1-(3-cyclopropyl-4-(methylsulfonyl)phenyl)-3-(6-(4-isopropyl-4H-1,2,4-triazol-3-yl)pyridin-2-yl)imidazolidin-2-one]
< 100	> 1000	CC(n1cnnc1-c1cccc(N2CCN(c3ccc(S(C)(=O)=O)cc3)C2=O)n1)C(F)(F)F (stereo not drawn) [Example 1061, 1-(6-(4-(1,1,1-trifluoropropan-2-yl)-4H-1,2,4-triazol-3-yl)pyridin-2-yl)-3-(4-(methylsulfonyl)phenyl)imidazolidin-2-one]
< 100	> 1000	CC(C)n1cnnc1-c1cccc(N2CCN(c3ccc(S(C)(=O)=O)c(N4CCCCC4)c3)C2=O)n1 [Example 1063, 1-(6-(4-isopropyl-4H-1,2,4-triazol-3-yl)pyridin-2-yl)-3-(4-(methylsulfonyl)-3-(piperidin-1-yl)phenyl)imidazolidin-2-one]
< 100	> 1000	CC(C)n1cnnc1-c1cccc(N2CCN(c3ccc(C4CCOCC4)cc3)C2=O)n1 [Example 1066, 1-(4-(tetrahydro-2H-pyran-4-yl)phenyl)-3-(6-(4-isopropyl-4H-1,2,4-triazol-3-yl)pyridin-2-yl)imidazolidin-2-one]
< 100	> 100	CC(C)n1cnnc1-c1cccc(N2CCN(c3ccc(N4CCC(O)CC4)cc3)C2=O)n1 [Example 1067, 1-(4-(4-hydroxypiperidin-1-yl)phenyl)-3-(6-(4-isopropyl-4H-1,2,4-triazol-3-yl)pyridin-2-yl)imidazolidin-2-one]
< 100	> 100	CC1COCC(=O)N1c1ccc(N2CCN(c3cccc(-c4nncn4C(C)C)n3)C2=O)cc1 (stereo not drawn) [Example 1068, 4-(4-(3-(6-(4-isopropyl-4H-1,2,4-triazol-3-yl)pyridin-2-yl)-2-oxoimidazolidin-1-yl)phenyl)-5-methylmorpholin-3-one]
< 100	> 100	CC1COCCN1c1ccc(N2CCN(c3cccc(-c4nncn4C(C)C)n3)C2=O)cc1 (stereo not drawn) [Example 1069, 1-(6-(4-isopropyl-4H-1,2,4-triazol-3-yl)pyridin-2-yl)-3-(4-(3-methylmorpholino)phenyl)imidazolidin-2-one]
